Reference: ChEMBL document CHEMBL1140181, “Tyrianthinic acids from Ipomoea tyrianthina and their antimycobacterial activity, cytotoxicity, and effects on the central nervous system” (2008)
In brackets after ≈: the same amount, converted by molar mass. Activity calls are given as the source filed them. The rule behind the calls is not given here.

Key:
Mus musculus [1] = species on record: Mus musculus; assay: Increase in GABA level in mouse brain at 4 ug/mL after 90 seconds; assay type: functional, organism-based
KB = assay: Cytotoxicity against human KB cells; assay type: functional; details: read-out: ED50 (the source's name)
Mus musculus [2] = assay: Anticonvulsant activity in mouse assessed as protection of pentylenetetrazole-induced seizure at 40 mg/kg, ip; assay type: functional; details: route intraperitoneal
Mus musculus [3] = assay: Anticonvulsant activity in mouse assessed as effect on pentobarbital-induced increase in hypnosis latency at 10 mg/kg, ip; assay type: functional, organism-based; set-up: dose 10 mg/kg
[4] = test system: Mycobacterium tuberculosis; assay: Antimicrobial activity against Mycobacterium tuberculosis H37Rv ATTC 27294 by alamar blue assay; assay type: functional
[5] = Cytotoxicity against human UISO-SQC-1 cells; assay type: functional; details: UISO-SQC1, read-out: ED50 (the source's name)
HCT-15 = assay: Cytotoxicity against human HCT15 cells; assay type: functional; details: read-out: ED50 (the source's name)
OVCAR-5 = assay: Cytotoxicity against human OVCAR5 cells; assay type: functional; details: read-out: ED50 (the source's name)

## C/C=C(\C)C(=O)O[C@H]1[C@@H]2O[C@H]3[C@H](O[C@H]4[C@H](OC(CCCCC)CCCCCCCCCC(=O)O[C@@H]1[C@H](O[C@H]1O[C@H](C)[C@H](O)[C@@H](O)[C@H]1O)[C@@H](C)O2)O[C@H](C)[C@H](O)[C@H]4O)O[C@H](CO)[C@H](O)[C@H]3O (stereo not given in full) [TYRIANTHIN 8]
Mus musculus [1]
  Activity: Active
KB
  EC50: 2.2 µg/mL (≈ 2.35 µM)
Mus musculus [2]
  Activity: 70%
Mus musculus [3]
  Activity: Active
[4]
  MIC: 25 µg/mL (≈ 26.7 µM)
[5]
  EC50: > 5 µg/mL
HCT-15
  EC50: > 5 µg/mL
OVCAR-5
  EC50: > 5 µg/mL

## CCCCCC1CCCCCCCCCC(=O)O[C@H]2[C@@H](OC(=O)CC)[C@H](O[C@H]3[C@H](O[C@H]4[C@H](O1)O[C@H](C)[C@H](O)[C@H]4O)O[C@H](CO)[C@H](O)[C@H]3O)O[C@H](C)[C@H]2O[C@H]1O[C@H](C)[C@H](O)[C@@H](O)[C@H]1O (stereo not given in full) [TYRIANTHIN 9]
Mus musculus [1]
  Activity: Active
KB
  EC50: 2.5 µg/mL (≈ 2.74 µM)
Mus musculus [2]
  Activity: 70%
Mus musculus [3]
  Activity: Active
[4]
  MIC: 25 µg/mL (≈ 27.4 µM)
[5]
  EC50: > 5 µg/mL
HCT-15
  EC50: > 5 µg/mL
OVCAR-5
  EC50: > 5 µg/mL

## C/C=C(\C)C(=O)O[C@H]1[C@H](O)[C@@H](O)[C@H](O[C@@H]2[C@@H](O)[C@@H](OC(=O)C(C)CC)[C@H](O[C@H]3[C@H](O[C@H]4[C@H](O[C@H](CCCCC)CCCCCCCCCC(=O)O)O[C@H](C)[C@@H](O)[C@@H]4O)O[C@H](CO)[C@@H](O)[C@@H]3O)O[C@H]2C)O[C@@H]1C (stereo not given in full) [THYRIANTHINIC ACID II]
KB
  EC50: 2.8 µg/mL (≈ 2.69 µM)
Mus musculus [2]
  Activity: 70%
Mus musculus [3]
  Activity: Active
[4]
  MIC: 25 µg/mL (≈ 24.1 µM)
[5]
  EC50: > 5 µg/mL
HCT-15
  EC50: > 5 µg/mL
OVCAR-5
  EC50: > 5 µg/mL

## CCCCC[C@H](CCCCCCCCCC(=O)O)O[C@@H]1O[C@H](C)[C@@H](O)[C@H](O)[C@H]1O[C@@H]1O[C@H](CO)[C@@H](O)[C@H](O)[C@H]1O[C@@H]1O[C@@H](C)[C@H](O[C@@H]2O[C@H](C)[C@@H](OC(=O)C(C)C(C)O)[C@H](O)[C@H]2O)[C@@H](O)[C@H]1OC(=O)C(C)CC (stereo not given in full) [THYRIANTHINIC ACID I]
KB
  EC50: 2.6 µg/mL (≈ 2.46 µM)
Mus musculus [2]
  Activity: 70%
Mus musculus [3]
  Activity: Active
[4]
  MIC: 25 µg/mL (≈ 23.6 µM)
[5]
  EC50: > 5 µg/mL
HCT-15
  EC50: > 5 µg/mL
OVCAR-5
  EC50: > 5 µg/mL
